Where two headings read alike, the source gives them in different places.
Key:
receptor = settings: scale where dexamethasone is 100; cited from earlier work
[1] = system: mitogen-induced proliferation of PBMC; assay: Proliferation of lectin-stimulated peripheral mononuclear cells; assay type: cell-based, human; settings: read-out: Prolif.**: Inhibition of mitogen-induced proliferation of PBMC
Procedure: Mononuclear cells from heparinized peripheral blood of healthy donors were isolated on suitable gradient (Optiprep solution, 1.077 g/ml). Serial dilutions of the test compounds (ranging from 2×10^−6 to 2×10^−8 M) were made in 100 μl of medium per well of sterile round-bottomed 96-well microtiter plate. Control wells contained culture medium only. 100 μl of cell suspension (10^6 cells/ml), containing concanavalin A (2 μg/ml) was added to each well. […] All cultures were done in triplicate. Microtiter plates were incubated for 72 h at 37° C., in 5% CO2 containing humidified atmosphere. For the last 18 h of incubation, [^3H]thymidine was added to the cells cultures, at 0.1 μCi/well final concentration. At the end of the incubation, cells were harvested to glass microfiber filter (Whatman G/F) and associated radioactivity was determined by liquid scintillation.

[2] = system: ovalbumin sensitized and challenged Brown Norway rats; assay: Airway changes of ovalbumin sensitized and challenged Brown Norway rats, intratracheal administration; assay type: in vivo; settings: for AHR (airways hyperreactivity) ED50: relative response to maximal acetylcholine dose
[3] = system: TNF α-production of LPS-stimulated blood cells; assay: TNF-α production of lipopolysaccharide-stimulated human blood; assay type: cell-based
Procedure: (§1) The in vitro anti-inflammatory effect of ED and its analogs was assessed using LPS-induced TNF α-release under various conditions (diluted or undiluted whole human blood, preincubation with sera) to determine the intrinsic anti-inflammatory activity and systemic biological stability of the various compounds.
(§2) Commercially available human cytokine ELISA sets were used. TNF-α and GM-CSF sets were purchased from BD Pharmingen, San Diego, Calif., USA) and the IL-1β set was obtained from R&D Systems (Minneapolis, Minn., USA). ELISA was performed according to the manufacturer's protocol. Cell-free supernatants were tested in duplicate. Detection limits were 7.8 pg/ml for TNF-α, 4.7 pg/ml for GM-CSF, and 3.9 pg/ml for IL-1β. Results were expressed as the mean percentage of inhibition. IC50 values for test compounds were calculated by linear regression.
Peripheral blood from healthy donors was collected aseptically into sterile heparinized (Vacutainer™) tubes. Whole blood samples from each individual were parallel used both undiluted and after 5-fold dilution with RPMI-1640 medium in every experiment. Blood samples were distributed into 24-well plates and incubated with serial concentrations of the test compounds and 1 μg/ml lipopolysaccharide for 24 h at 37° C. in a CO2 thermostat. Controls were treated with lipopolysaccharide and the vehicle (PBS or 0.01% dimethyl sulfoxide in PBS). After incubation, cell-free supernatants were separated by centrifugation (1000 g for 10 minutes) and stored at −20° C. until determination of the amount of TNF-α. Test compounds were examined in blood samples from five different individuals. Two parallel cultures per treatments were run.

[4] = Stability in the presence of human plasma (HPLC/MS/MS); assay type: in vitro ADME; settings: 37° C.
Procedure: Etiprednol dicloacetate (BNP-166) was added to freshly prepared human plasma of healthy donors at a concentration of 5 ng/ml, and were incubated at 37° C. for different intervals. After incubation the amount of the original compound (ethyl-17α-dichloroacetoxy-11β-hydroxyandostra-1,4-diene-3-one-17β-carboxylate), and one of its main metabolite, M-OH (17α,11β-dihydroxyandostra-1,4-diene-3-one-17β-carboxylate) were determined using an HPLC/MS/MS method. In brief: Fluocinolone acetonide served as internal standard (20 ng/ml), samples were extracted with a liquid-liquid extraction on Extrelut® columns, and were separated on a Purospher STAR 30×2 mm (3 μm) reversed phase column at a flow rate of 0.3 ml/min, using a linear gradient with a mobile phase system containing acetonitrile, water and acetic acid. Determination were performed on a triple quadrupole mass spectrometer (Perkin-Elmer SCIEX API 2000) supplied with an electrospray interface operated in the positive ionization mode. The multiple ion monitoring, parent→daughter ion transitions of 485.2→265.2, 375.2→265.2 and 495.2→337.2 were used for the quantification of etiprednol dicloacetate, its M-OH metabolite and for the internal standard respectively. Results are expressed as peak areas normalized to the internal control. Stability of the selected ED analogs (10, 11, 13, 17, 21, 25) were determined as described above for ED (3).

[5] = system: TNF-α production of LPS-stimulated whole blood cells; assay: Stability: inhibition of TNF-α production with or without preincubation of the compounds in human plasma/serum; assay type: cell-based
Procedure: as §1, §2
Mononuclear cells from peripheral blood of healthy donors were isolated on Ficoll-gradient. One million cells in 0.9 ml of RPMI 1640 medium were distributed into 24-well plates and serial concentrations of the test compounds, made in fresh human serum either instantly or 18 h previously, were added (0.05 ml) together with the lipopolysaccharide (0.05 ml; 1 μg/ml final concentration). Preincubation of the compounds with serum was carried out at 37° C. Processing of the cultures was done as described above.

TNF-α production = settings: cited from earlier work
[6] = system: IL-1β from the human monocyte cell line THP-1; assay: IL-1β production of stimulated THP.1 cells; assay type: cell-based
Procedure: as §2
THP.1 cells (human monocytic cell line: American Type Culture Collection. Rockville, Md., USA) were maintained in RPMI-1640 medium, supplemented with 10% FCS, 5×10^−5 M 2-merkapto-ethanol, 2 mM glutamine and antibiotics, and were split in every 3rd days. To examine the effect of test compounds 2×10^6 cells/well (24 well plates in 1 ml/well volume) were stimulated with 1 μg/ml LPS and 25 μg/ml silica for IL-1β production as described previously (Németh et al. 1995). The test compounds were dissolved in RPMI-1640 medium or the medium containing 0.01% DMSO. Two parallel cell cultures per treatment groups were run in three independent experiments. IL-1β levels in cell-free supernatants were determined by ELISA.

[7] = intratracheal, 2 hours prior challenge
[8] = intratracheal, 2 hours prior challenge, minimal statistically significantly effective dose
[9] = diluted blood 1:5, read-out: TNFα* a: Inhibition of TNF α-production of LPS-stimulated blood cells
[10] = undiluted blood, read-out: TNFα* b: Inhibition of TNF α-production of LPS-stimulated blood cells
[11] = non-preincubated in human plasma, read-out: Stability*** c: Inhibition of TNF-α production of LPS-stimulated whole blood cells
[12] = preincubated overnight in human plasma, read-out: Stability*** d: Inhibition of TNF-α production of LPS-stimulated whole blood cells

SMILES: CCOC(=O)O[C@]1(C(=O)OCCl)CCC2C3CCC4=CC(=O)C=CC4(C)C3[C@@H](O)CC21C (stereo partly drawn) [LE, chloromethyl 17α-ethoxycarbonyloxy-11β-hydroxyandrosta-1,4-dien-3-one-17β-carboxylate]
- relative receptor binding activity (RRBA) (receptor): 160

SMILES: C[C@@H]1C[C@H]2[C@@H]3C[C@H](F)C4=CC(=O)C=C[C@]4(C)[C@@]3(F)[C@@H](O)C[C@]2(C)[C@@]1(OC(=O)C(Cl)Cl)C(=O)SCF [Compound 25, S-Fluoromethyl 17α-dichloroacetoxy-6α,9α-difluoro-11β-hydroxy-16α-methyl-3-oxoandrosta-1,4-diene-17β-carbothioate]
- IC50 [1]: 0.1 nM
- overall in vivo activity compared with the parent steroid ([2]; Table 2 parameters): overall superior to FLU
- Edema formation ED50 [2, 7]: <1.0 µg/kg
- Eosinophilia BALF ED50 [2, 7]: 16.1 µg/kg
- Eosinophilia Perivascular ED50 [2, 7]: 83.8 µg/kg
- Mucus production ED50 [2, 7]: 7.42 µg/kg
- Mucus production, second line (dose type not given) [2, 7]: 100 µg/kg
- BALF protein ED50 ([2]; intratracheal, 2 hours prior challenge, broncho-alveolar lavage fluid): 0.64 µg/kg
- AHR (airways hyperreactivity) MSED [2, 8]: 10 µg/kg
- BALF protein MSED [2, 8]: 100 µg/kg
- Edema formation MSED [2, 8]: 1.0 µg/kg
- Eosinophilia BALF MSED [2, 8]: 1.0 µg/kg
- Eosinophilia Perivascular MSED [2, 8]: 1.0 µg/kg
- AHR (airways hyperreactivity) ED50 [2, 7]: 3.75 µg/kg
- IC50 [3, 9]: 2 nM
- IC50 [3, 10]: 3 nM
- stability in the presence of human plasma [4]: particularly stable
- IC50 [5, 11]: 1 nM
- IC50 [5, 12]: 87 nM

SMILES: CCOC(=O)[C@@]1(OC(=O)C(Cl)Cl)CC[C@H]2[C@@H]3CCC4=CC(=O)C=C[C@]4(C)[C@H]3[C@@H](O)C[C@@]21C [Compound 3, Ethyl 17α-dichloroacetoxy-11β-hydroxyandrosta-1,4-diene-3-one-17β-carboxylate]
- IC50 [1]: 10 nM
- loss of activity during incubation (TNF-α production; five days): 100 fold
- loss of activity during incubation (TNF-α production; two days): five-fold
- Edema formation ED50 [2, 7]: 2.9 µg/kg
- Eosinophilia BALF ED50 [2, 7]: ≤0.1 µg/kg
- Eosinophilia Peribronchial ED50 [2, 7]: 0.62 µg/kg
- Eosinophilia Perivascular ED50 [2, 7]: >100 µg/kg
- Mucus production ED50 [2, 7]: 13.8 µg/kg
- Mucus production, second line (dose type not given) [2, 7]: 0.1 µg/kg
- AHR (airways hyperreactivity) MSED [2, 8]: ≈1.0 μg/kg
- Edema formation MSED [2, 8]: 0.1 µg/kg
- Eosinophilia BALF MSED [2, 8]: 0.1 µg/kg
- Eosinophilia Peribronchial MSED [2, 8]: 0.1 µg/kg
- Eosinophilia Perivascular MSED [2, 8]: 1.0 µg/kg
- AHR (airways hyperreactivity) ED50 [2, 7]: ≈1.0 μg/kg
- IC50 [3, 9]: 27 nM
- IC50 [3, 10]: 103 nM
- relative receptor binding activity (RRBA) (receptor): ~200
- inhibition of the liberation of IL-1β [6]: significantly inhibited
- IC50 [5, 11]: 73 nM
- IC50 [5, 12]: 2700 nM

Source: patent publication US11447522B2, “Potent soft anti-inflammatory corticosteroid compounds and uses thereof” (Bodor Laboratories, Inc., priority 2017, dated 2022)
